{"source": "patent EP1094711B1", "about": "“METHODS FOR ERADICATION OF NANOBACTERIA” (Nanobac Oy, priority 1998, dated 2000)", "key": {"SF-nanobacteria": {"test_system": "SF-nanobacteria", "assay": "Chemical disinfection of SF-nanobacteria", "type": "cell-based", "design": "key to Resistance of SF-nanobacteria to chemical disinfectants (survival) / partial or total detachment on exposure: +++: No effect; ++: Reduced survival; +: Markedly reduced survival; - : No survival; * = partial or total detachment on exposure", "settings": "for Resistance of SF-nanobacteria to chemical disinfectants (survival): survival after subculture compared to diluent only; for effect of chemical disinfection on SF-nanobacteria (in words): exposure at room temperature, then subculture", "description": "The cultures were exposed to the disinfectants after removal of the culture medium. For the autoclaving, UV, microwave, and drying treatments, the medium was removed and an equal amount of PBS used instead. For the heat treatments, the SF-nanobacteria were harvested by scraping the culture vessel followed by centrifugation of the medium. The obtained pellet was suspended in PBS and used in the test. After treatments the SF-nanobacteria were subcultured in DMEM medium and the growth followed by light microscopy to see the adherence and typical mineralization.\nThe concentrations of the chemicals used were those commonly used for disinfection or as instructed by the manufacturer. The chemicals included 70% ethanol, 2% glutaraldehyde, 4% formaldehyde, 0.5% hypochlorite, 3% hydrogen peroxide, 1M hydrochloric acid (HCl), 1M sodium hydroxide (NaOH) , 1% sodium dodecyl sulfate (SDS), 1% Tween 80, 1 % Triton X-100, 3M guanidium-hydrochloride, 3M urea, 1% Virkon® (Antec International Ltd., Suffolk, England; 100% product contains 50% potassium persulfate, 5% sulfaminoic acid), 1.5% Erifenol® (Orion OY, Finland; 100% product contains <5% NaOH, <5% o-benzyl-p-chlorophenol, 5-15% p-chloro-m-cresol), 1% Klorilli® (Orion OY, Finland; 100% product contains sodium metasilicate, sodium N-chloro-p-toluenesulfonamide-3-hydrate and 20,000 ppm active chlorine), and 3% Buraton® (Schülke & Mayr, Germany; 100% product contains 4.5% formaldehyde, 6.8% glyoxal, 1.5% glyoxylic acid, 6% dimethylaurylbenzyl-ammonium chloride). The dilutions to be used were freshly prepared on the day of exposure in sterile distilled water. As a positive control, only diluent was used. Negative control contained only culture medium.\nThe SF-nanobacteria were exposed to the chemicals for 10 and 30 minutes at room temperature after removal of the culture medium. After exposure, the disinfectant solution was removed and fresh medium added (with a neutralization step in the case of HCl and NaOH). If any significant deattachment occurred, nanobacteria were recovered by centrifugation, and subcultured. The exposed serum-free cultures were passaged 1:10 after 48 hours and the growth was followed by light microscopy for three weeks."}, "nanobacteria": {"test_system": "nanobacteria", "assay": "Antibiotic sensitivity test by Minimal Inhibition Concentration (MIC), 96-well plates, absorbance at 650 nm", "type": "cell-based", "description": "Antibiotic sensitivity tests were carried out by measuring Minimal Inhibition Concentration (MIC), a common practice in clinical microbiology.\nThe tests were performed in 96-well plates. DMEM (commercial cell culture medium) containing 10% gamma-irradiated fetal bovine serum (FBS)(dose about 3 Mrads; this treatment inactivates nanobacteria in the serum so that the basic medium is sterile) was used as the basic culture medium. These components are commercially available, e.g., from Gibco. The antibiotic stock solutions were sterile filtered through 0.2 micrometer filters. The stock solutions were then serially diluted (into the basal culture medium) to provide a final starting concentration of 0.5 mg/ml and 1:2 dilutions therefrom, unless otherwise specified. For each antibiotic three parallel tests were performed using all the antibiotic dilutions and, additionally, positive and negative control experiments. […] 100 µl of dilutions of the nanobacteria inoculum were added to all wells except the negative controls. The plates were incubated at mammalian cell culture conditions (37° Celsius, 5% carbon dioxide, 95% humid air). The absorbance values at 650 nm were recorded by using an ELISA reader at the start, and at 4, 8, 12, 14 days. […] Calculations were based on absorbance curves where absorbance was plotted against concentration of the antibiotic."}, "[1]": {"settings": "Exposure time 10 min, room temperature"}, "[2]": {"settings": "Exposure time 30 min, room temperature"}, "[3]": {"settings": "light or radiation study, 288 h; read-out: MIC 50"}, "[4]": {"settings": "light or radiation study, 288 h; 90% inhibition, 12 day time point, DMEM with 10% gamma-irradiated FBS; read-out: MIC 90"}, "[5]": {"settings": "50% inhibition, 12 day time point, DMEM with 10% gamma-irradiated FBS"}}, "note": "Structures can show the parent of a compound that is named as a salt. Where two headings read alike, the source gives them in different places.", "data": [{"compound": "[Na+].[OH-]", "note": "[1M NaOH, sodium hydroxide]", "values": [{"measurement": "Resistance of SF-nanobacteria to chemical disinfectants (survival)", "setting": "SF-nanobacteria; [1]", "result": "+++"}, {"measurement": "Resistance of SF-nanobacteria to chemical disinfectants (survival)", "setting": "SF-nanobacteria; [2]", "result": "+++"}]}, {"compound": "Nc1ccc(C(=O)O)c(O)c1", "note": "[para-aminosalicylic acid]", "values": [{"measurement": "MIC value compared with acetylsalicylic acid", "setting": "nanobacteria", "result": "identical with acetylsalicylic acid"}]}, {"compound": "O=C(N[C@H](CO)[C@H](O)c1ccc([N+](=O)[O-])cc1)C(Cl)Cl", "note": "[Chloramphenicol]", "values": [{"measurement": "IC50", "setting": "nanobacteria; [3]", "result": "> 500", "unit": "µg/mL"}]}, {"compound": "CC(=O)O", "note": "[acetic acid]", "values": [{"measurement": "IC50", "setting": "nanobacteria; short chain organic acids tested later in culture tests; read-out: MIC50 values", "result": "10 to 50", "unit": "mM"}]}, {"compound": "N=C(N)N", "note": "[3M Guanidium HCl, guanidium-hydrochloride]", "values": [{"measurement": "Resistance of SF-nanobacteria to chemical disinfectants (survival)", "setting": "SF-nanobacteria; [2]", "result": 0}, {"measurement": "effect of chemical disinfection on SF-nanobacteria (in words)", "setting": "SF-nanobacteria", "result": "deattachment"}]}, {"compound": "NC(=O)c1cnccn1", "note": "[Pyrazinamide]", "values": [{"measurement": "IC50", "setting": "nanobacteria; [3]", "result": "> 500", "unit": "µg/mL"}]}, {"compound": "O=C1CN(/N=C/c2ccc([N+](=O)[O-])o2)C(=O)N1", "note": "[Nitrofurantoin]", "values": [{"measurement": "IC90", "setting": "nanobacteria; [4]", "result": 1.5, "unit": "µg/mL"}, {"measurement": "IC50", "setting": "nanobacteria; [3]", "result": 0.6, "unit": "µg/mL"}]}, {"compound": "CO[C@H]1/C=C/O[C@@]2(C)Oc3c(C)c(O)c4c(O)c(c(/C=N/N5CCN(C)CC5)c(O)c4c3C2=O)NC(=O)/C(C)=C\\C=C\\[C@H](C)[C@H](O)[C@@H](C)[C@@H](O)[C@@H](C)[C@H](OC(C)=O)[C@@H]1C", "note": "[Rifampicin]", "values": [{"measurement": "IC50", "setting": "nanobacteria; [3]", "result": "> 500", "unit": "µg/mL"}]}, {"compound": "CC1=CC(=O)c2ccccc2C1=O", "note": "[Vitamin K (Menadion), Menadion]", "values": [{"measurement": "antinanobacterial effect in the in vitro test (in words)", "setting": "nanobacteria; in vitro MIC test", "result": "toxic to nanobacteria"}, {"measurement": "IC50", "setting": "nanobacteria; [3]", "result": 2, "unit": "µg/mL"}]}, {"compound": "CC(=O)OCC1=C(C(=O)O)N2C(=O)[C@@H](NC(=O)Cc3cccs3)[C@H]2SC1", "note": "[Cephalothin]", "values": [{"measurement": "IC50", "setting": "nanobacteria; [3]", "result": "> 500", "unit": "µg/mL"}]}, {"compound": "CC(O)(P(=O)(O)O)P(=O)(O)O", "note": "[Ethidronate]", "values": [{"measurement": "antinanobacterial effect in the in vitro test (in words)", "setting": "nanobacteria; in vitro MIC test", "result": "bacteriocidic effect"}, {"measurement": "IC90", "setting": "nanobacteria; [4]", "result": 0.5, "unit": "µg/mL"}, {"measurement": "IC50", "setting": "nanobacteria; [3]", "result": 0.1, "unit": "µg/mL"}]}, {"compound": "Triton X-100 [1 % Triton X-100]", "values": [{"measurement": "Resistance of SF-nanobacteria to chemical disinfectants (survival)", "setting": "SF-nanobacteria; [1]", "result": "+++"}, {"measurement": "Resistance of SF-nanobacteria to chemical disinfectants (survival)", "setting": "SF-nanobacteria; [2]", "result": "+++"}]}, {"compound": "O=C(O)CC(O)(CC(=O)O)C(=O)O", "note": "[Citrate]", "values": [{"measurement": "IC90", "setting": "nanobacteria; 288 h; 90% inhibition, 12 day time point; read-out: MIC 90", "result": 1, "unit": "mM"}, {"measurement": "IC50", "setting": "nanobacteria; 288 h; read-out: MIC 50", "result": 0.2, "unit": "mM"}, {"measurement": "antinanobacterial effect in the in vitro test (in words)", "setting": "nanobacteria; in vitro MIC test", "result": "effective antinanobacterial agent"}]}, {"compound": "CC(=O)Oc1ccccc1C(=O)O", "note": "[Acetylsalicylic acid]", "values": [{"measurement": "IC50", "setting": "nanobacteria; 288 h; read-out: MIC 50", "result": 500, "unit": "µg/mL"}, {"measurement": "antinanobacterial effect in the in vitro test (in words)", "setting": "nanobacteria; in vitro MIC test", "result": "weak"}]}, {"compound": "hydrochloric acid [1M HCl]", "values": [{"measurement": "partial or total detachment on exposure", "setting": "SF-nanobacteria; [2]", "result": "*"}, {"measurement": "Resistance of SF-nanobacteria to chemical disinfectants (survival)", "setting": "SF-nanobacteria; [2]", "result": "++"}, {"measurement": "effect of chemical disinfection on SF-nanobacteria (in words)", "setting": "SF-nanobacteria; listed as Hydrochloric acid", "result": "dissolved the apatite layer"}, {"measurement": "effect of chemical disinfection on SF-nanobacteria (in words)", "setting": "SF-nanobacteria; listed as hydrochloric acid", "result": "could not kill nanobacteria"}]}, {"compound": "CN(C)[C@@H]1C(O)=C(C(N)=O)C(=O)[C@@]2(O)C(O)=C3C(=O)c4c(O)cccc4[C@@](C)(O)[C@H]3C[C@@H]12", "note": "[Tetracycline]", "values": [{"measurement": "IC50", "setting": "nanobacteria; light or radiation study, 288 h, read-out: MIC 50", "result": 0.3, "unit": "µg/mL"}, {"measurement": "IC90", "setting": "nanobacteria; light or radiation study, 288 h, read-out: MIC 90", "result": 1.3, "unit": "µg/mL"}]}, {"compound": "Cc1ncc([N+](=O)[O-])n1CCO", "note": "[Metronidasole]", "values": [{"measurement": "MIC 50", "setting": "nanobacteria; [5]", "result": ">500", "unit": "µg/mL"}]}, {"compound": "Penicillin", "values": [{"measurement": "MIC 50", "setting": "nanobacteria; [5]", "result": ">500", "unit": "µg/mL"}]}, {"compound": "Neomycin", "values": [{"measurement": "MIC 50", "setting": "nanobacteria; [5]", "result": 16, "unit": "µg/mL"}, {"measurement": "MIC 90", "setting": "nanobacteria; 90% inhibition, 12 day time point, DMEM with 10% gamma-irradiated FBS", "result": 30, "unit": "µg/mL"}, {"measurement": "antinanobacterial effect in the in vitro test (in words)", "setting": "nanobacteria; in vitro MIC test", "result": "bacteriostatic effects at high antibiotic concentrations"}]}, {"compound": "O=P(O)(O)C(Cl)(Cl)P(=O)(O)O", "note": "[Chlodronate]", "values": [{"measurement": "antinanobacterial effect in the in vitro test (in words)", "setting": "nanobacteria; in vitro MIC test", "result": "bacteriocidic effect"}, {"measurement": "IC90", "setting": "nanobacteria; [4]", "result": 0.5, "unit": "µg/mL"}, {"measurement": "IC50", "setting": "nanobacteria; [3]", "result": 0.1, "unit": "µg/mL"}]}, {"compound": "CCCCCCCCCCCCOS(=O)(=O)[O-].[Na+]", "note": "[1 % SDS, sodium dodecyl sulfate]", "values": [{"measurement": "Resistance of SF-nanobacteria to chemical disinfectants (survival)", "setting": "SF-nanobacteria; [1]", "result": "+++"}, {"measurement": "Resistance of SF-nanobacteria to chemical disinfectants (survival)", "setting": "SF-nanobacteria; [2]", "result": "+++"}]}]}
